According to PMC9317327, “Functional Characterization, Antimicrobial Effects, and Potential Antibacterial Mechanisms of NpHM4, a Derived Peptide of Nautilus pompilius Hemocyanin” (Marine Drugs, 2022):
In brackets after ≈: the same amount, converted by molar mass. Read-outs that look alike come from different tables or passages of the source. Where a SMILES comes first, the peptide text is derived from it.

Experiments:
Type in all cases: cell-based
[1] = test system: Vibrio parahaemolyticus 2013V-1174; settings: 2 h, pH 7.2
Experimental: (§1) The antimicrobial activity of the peptides was determined against Gram-negative bacteria, including V. alginolyticus (A056), E. coli (DH5α), and V. parahaemolyticus (2013V-1174), which were obtained from the South China Sea Institute of Oceanology, Chinese Academy of Sciences. The activity was also tested against the Gram-positive bacteria S. aureus ATCC 25923 and B. subtilis ATCC 6051. To assess the antimicrobial activities of the peptides, bacterial cells were cultured to the logarithmic growth phase and then diluted to 10^6–1.5 × 10^7 CFU/mL with PBS (0.01 M, pH 7.2). Equal volumes of serially diluted peptides, with concentrations ranging from 30 to 450 μM in PBS, and bacteria suspension were mixed and incubated at room temperature for 2 h, respectively. Then, 6 μL of each serially diluted mixture was plated on sterile 12-well agar plates, followed by incubation for 11 to 12 h, and the colonies were assessed to determine the MICs and MBCs. The MICs were expressed (in µM) as an [a]–[b] concentration interval, where [a] is the highest peptide concentration at which bacteria were growing and [b] is the lowest concentration that caused 100% growth inhibition. Cultures without peptides were employed as controls. All the tests were performed in triplicate and repeated three times.

Escherichia coli (DH5α) = test system: Escherichia coli (DH5α)
Experimental: as §1

[2] = test system: Bacillus subtilis ATCC 6051; settings: ATCC 6051, 2 h, pH 7.2
Experimental: as §1

[3] = test system: Staphylococcus aureus ATCC 25923; settings: ATCC 25923, 2 h, pH 7.2
Experimental: as §1

[4] = test system: Vibrio alginolyticus (A056)
Experimental: as §1

Row | SMILES | MBC [1] | MIC [1] | MBC (Escherichia coli (DH5α); DH5α, 2 h, pH 7.2) | MIC (Escherichia coli (DH5α); DH5α, 2 h, pH 7.2) | MBC [2] | MIC [2] | MBC [3] | MIC [3] | MBC ([4]; 2 h, pH 7.2) | MIC ([4]; 2 h, pH 7.2) | MBC (Escherichia coli (DH5α); E. coli DH5α, 2 h in PBS pH 7.2 at room temperature, plated 11 to 12 h, triplicate, repeated three times) | MIC (Escherichia coli (DH5α); E. coli DH5α, peptide mixed with bacteria (10^6–1.5 × 10^7 CFU/mL) in PBS 0.01 M pH 7.2, 2 h room temperature, plated on agar 11 to 12 h, interval [a]–[b]: [a] highest concentration with growth, [b] lowest with 100% growth inhibition, triplicate, repeated three times) | MIC ([4]; V. alginolyticus A056, 2 h in PBS pH 7.2 at room temperature, plated 11 to 12 h, interval [a]–[b]: [a] highest concentration with growth, [b] lowest with 100% growth inhibition, triplicate, repeated three times) | MBC ([4]; V. alginolyticus A056, 2 h in PBS pH 7.2 at room temperature, plated 11 to 12 h, triplicate, repeated three times)
1 | CC[C@H](C)[C@H](NC(=O)CNC(=O)[C@H](Cc1c[nH]cn1)NC(=O)[C@H](CCCNC(=N)N)NC(=O)[C@H](CC(C)C)NC(=O)[C@H](Cc1ccccc1)NC(=O)CNC(=O)[C@H](C)NC(=O)[C@H](Cc1ccccc1)NC(=O)[C@@H](NC(=O)[C@@H](N)CCCNC(=N)N)C(C)C)C(=O)N[C@@H](CCCCN)C(=O)N[C@@H](CCCNC(=N)N)C(=O)N[C@@H](CO)C(=O)N[C@@H](C)C(=O)O [NpHM1] (H-RVFAGFLRHGIKRSA-OH) | >60 µM | 15 to 60 µM | >60 µM | 15 to 60 µM | >60 µM | >60 µM | >60 µM | >60 µM | >150 µM | 50 to 150 µM | – | – | – | –
2 | CC[C@H](C)[C@H](NC(=O)CNC(=O)[C@H](Cc1c[nH]cn1)NC(=O)[C@H](CC(C)C)NC(=O)[C@H](CC(C)C)NC(=O)[C@H](Cc1ccccc1)NC(=O)CNC(=O)[C@H](C)NC(=O)[C@H](Cc1ccccc1)NC(=O)[C@@H](NC(=O)[C@@H](N)CCCNC(=N)N)C(C)C)C(=O)N[C@@H](CCCCN)C(=O)N[C@@H](CCCNC(=N)N)C(=O)N[C@@H](CO)C(=O)N[C@@H](CCCNC(=N)N)C(=O)O [NpHM2] (H-RVFAGFLLHGIKRSR-OH) | >60 µM | 30 to 60 µM | – | 30 to 60 µM | – | – | – | – | >75 µM | 70 to 150 µM | – | – | – | –
3 | CC[C@H](C)[C@H](NC(=O)CNC(=O)[C@H](Cc1c[nH]cn1)NC(=O)[C@H](CC(C)C)NC(=O)[C@H](CC(C)C)NC(=O)[C@H](Cc1ccccc1)NC(=O)CNC(=O)[C@H](C)NC(=O)[C@H](CCCNC(=N)N)NC(=O)[C@@H](NC(=O)[C@@H](N)CCCNC(=N)N)C(C)C)C(=O)N[C@@H](CCCCN)C(=O)N[C@@H](CCCNC(=N)N)C(=O)N[C@@H](CO)C(=O)N[C@@H](C)C(=O)O [NpHM3] (H-RVRAGFLLHGIKRSA-OH) | >60 µM | 15 to 60 µM | >60 µM | 15 to 50 µM | >60 µM | >60 µM | >60 µM | >60 µM | >150 µM | 30 to 75 µM | – | – | – | –
4 | CC[C@H](C)[C@H](NC(=O)CNC(=O)[C@H](Cc1c[nH]cn1)NC(=O)[C@H](CC(C)C)NC(=O)[C@H](CC(C)C)NC(=O)[C@H](Cc1ccccc1)NC(=O)CNC(=O)[C@H](C)NC(=O)[C@H](CCCNC(=N)N)NC(=O)[C@@H](NC(=O)[C@@H](N)CCCNC(=N)N)C(C)C)C(=O)N[C@@H](CCCCN)C(=O)N[C@@H](CCCNC(=N)N)C(=O)N[C@@H](CO)C(=O)N[C@@H](CCCNC(=N)N)C(=O)O [NpHM5] (H-RVRAGFLLHGIKRSR-OH) | >70 µM | 15 to 70 µM | >50 µM | >50 µM | >50 µM | >50 µM | >50 µM | >50 µM | >70 µM | 15 to 70 µM | – | – | – | –
5 | CC[C@H](C)[C@H](NC(=O)CNC(=O)[C@H](Cc1c[nH]cn1)NC(=O)[C@H](CCCNC(=N)N)NC(=O)[C@H](CC(C)C)NC(=O)[C@H](Cc1ccccc1)NC(=O)CNC(=O)[C@H](C)NC(=O)[C@H](CCCNC(=N)N)NC(=O)[C@@H](NC(=O)[C@@H](N)CCCNC(=N)N)C(C)C)C(=O)N[C@@H](CCCCN)C(=O)N[C@@H](CCCNC(=N)N)C(=O)N[C@@H](CO)C(=O)N[C@@H](C)C(=O)O [NpHM6] (H-RVRAGFLRHGIKRSA-OH) | >60 µM | 15 to 60 µM | >50 µM | >50 µM | >50 µM | >50 µM | >50 µM | >50 µM | >70 µM | >70 µM | – | – | – | –
6 | CC[C@H](C)[C@H](NC(=O)CNC(=O)[C@H](Cc1c[nH]cn1)NC(=O)[C@H](CCCNC(=N)N)NC(=O)[C@H](CC(C)C)NC(=O)[C@H](Cc1ccccc1)NC(=O)CNC(=O)[C@H](C)NC(=O)[C@H](CCCNC(=N)N)NC(=O)[C@@H](NC(=O)[C@@H](N)CCCNC(=N)N)C(C)C)C(=O)N[C@@H](CCCCN)C(=O)N[C@@H](CCCNC(=N)N)C(=O)N[C@@H](CO)C(=O)N[C@@H](CCCNC(=N)N)C(=O)O [NpHM7] (H-RVRAGFLRHGIKRSR-OH) | >150 µM | >150 µM | >150 µM | >150 µM | >150 µM | >150 µM | >150 µM | >150 µM | >150 µM | >150 µM | – | – | – | –
7 | CSCC[C@H](NC(=O)[C@H](Cc1ccccc1)NC(=O)CNC(=O)[C@H](C)NC(=O)[C@H](Cc1ccccc1)NC(=O)[C@@H](N)C(C)C)C(=O)N[C@@H](CC(C)C)C(=O)N[C@@H](Cc1c[nH]cn1)C(=O)NCC(=O)N[C@@H](Cc1ccccc1)C(=O)N[C@@H](CCCCN)C(=O)N[C@@H](CCCCN)C(=O)N[C@@H](CO)C(=O)N[C@@H](C)C(=O)N[C@@H](CC(C)C)C(=O)N[C@H](C(=O)O)C(C)C [NpHN1] (H-VFAGFMLHGFKKSALV-OH) | – | – | >450 µM | 250 to 450 µM | – | – | – | – | >260 µM | 50 to 260 µM | – | – | – | –
8 | CC[C@H](C)[C@H](NC(=O)CNC(=O)[C@H](CO)NC(=O)[C@H](CC(C)C)NC(=O)[C@H](CCCNC(=N)N)NC(=O)[C@H](Cc1ccccc1)NC(=O)[C@H](CO)NC(=O)[C@H](C)NC(=O)[C@@H](N)Cc1ccccc1)C(=O)N[C@@H](Cc1c[nH]cn1)C(=O)N[C@H](C(=O)N[C@@H](CO)C(=O)N[C@@H](C)C(=O)N[C@@H](CC(N)=O)C(=O)N[C@H](C(=O)N[C@@H](CCCCN)C(=O)N[C@H](C(=O)N[C@@H](CC(C)C)C(=O)O)C(C)C)C(C)C)[C@@H](C)O [NpHN2] (H-FASFRLSGIHTSANVKVL-OH) | – | – | >500 µM | 200 to 500 µM | – | – | – | – | >280 µM | 100 to 280 µM | – | – | – | –
9 | CC[C@H](C)[C@H](NC(=O)[C@H](CS)NC(=O)[C@H](CS)NC(=O)[C@H](C)NC(=O)[C@H](Cc1ccc(O)cc1)NC(=O)[C@H](CCCNC(=N)N)NC(=O)[C@H](Cc1c[nH]cn1)NC(=O)[C@H](CC(C)C)NC(=O)[C@H](C)NC(=O)[C@@H](N)CCCCN)C(=O)N[C@@H](Cc1c[nH]cn1)C(=O)NCC(=O)N[C@@H](CCSC)C(=O)N[C@@H](C)C(=O)N[C@H](C(=O)O)[C@@H](C)O [NpHN3] (H-KALHRYACCIHGMAT-OH) | – | – | >450 µM | 250 to 450 µM | – | – | – | – | >250 µM | 50 to 250 µM | – | – | – | –
10 | CC[C@H](C)[C@H](NC(=O)[C@H](CCCNC(=N)N)NC(=O)[C@@H](NC(=O)[C@H](CC(N)=O)NC(=O)[C@H](C)NC(=O)[C@H](CO)NC(=O)[C@H](C)NC(=O)[C@H](CCC(N)=O)NC(=O)[C@@H](NC(=O)CNC(=O)[C@H](Cc1c[nH]cn1)NC(=O)[C@H](CC(C)C)NC(=O)[C@H](CC(C)C)NC(=O)[C@H](Cc1ccccc1)NC(=O)CN)[C@@H](C)CC)C(C)C)C(=O)O [NpHN4] (H-GFLLHGIQASANVRI-OH) | – | – | >600 µM | 200 to 600 µM | – | – | – | – | >300 µM | 100 to 300 µM | – | – | – | –
11 | CC[C@H](C)[C@H](NC(=O)CNC(=O)[C@H](Cc1c[nH]cn1)NC(=O)[C@H](CC(C)C)NC(=O)[C@H](CC(C)C)NC(=O)[C@H](Cc1ccccc1)NC(=O)CNC(=O)[C@H](C)NC(=O)[C@H](Cc1ccccc1)NC(=O)[C@@H](NC(=O)[C@@H](N)CCCNC(=N)N)C(C)C)C(=O)N[C@@H](CCCCN)C(=O)N[C@@H](CCCNC(=N)N)C(=O)N[C@@H](CO)C(=O)N[C@@H](C)C(=O)O [NpHN5] (H-RVFAGFLLHGIKRSA-OH) | – | – | – | – | – | – | – | – | – | – | 450 µM (≈ 752 µg/mL) | 200 to 450 µM | 50 to 250 µM | 250 µM (≈ 418 µg/mL)
12 | CC[C@H](C)[C@H](NC(=O)CNC(=O)[C@H](Cc1c[nH]cn1)NC(=O)[C@H](CC(C)C)NC(=O)[C@H](CC(C)C)NC(=O)[C@H](Cc1ccccc1)NC(=O)CNC(=O)[C@H](C)NC(=O)[C@H](Cc1ccccc1)NC(=O)[C@@H](NC(=O)[C@@H](N)CCCNC(=N)N)[C@@H](C)CC)C(=O)NCC(=O)N[C@@H](CCC(N)=O)C(=O)N[C@@H](CO)C(=O)N[C@@H](C)C(=O)O [NpHN6] (H-RIFAGFLLHGIGQSA-OH) | – | – | >500 µM | 250 to 500 µM | – | – | – | – | – | 100 to 300 µM | – | – | – | –
